These results are taken from patent US20220144812A1, “QUINOLINE DERIVATIVES AND THEIR USE FOR THE TREATMENT OF CANCER” (Epizyme, Inc., priority 2019, published 2022).

Molecules are shown by their SMILES.

T1 sequence (Q92793 1084-1701): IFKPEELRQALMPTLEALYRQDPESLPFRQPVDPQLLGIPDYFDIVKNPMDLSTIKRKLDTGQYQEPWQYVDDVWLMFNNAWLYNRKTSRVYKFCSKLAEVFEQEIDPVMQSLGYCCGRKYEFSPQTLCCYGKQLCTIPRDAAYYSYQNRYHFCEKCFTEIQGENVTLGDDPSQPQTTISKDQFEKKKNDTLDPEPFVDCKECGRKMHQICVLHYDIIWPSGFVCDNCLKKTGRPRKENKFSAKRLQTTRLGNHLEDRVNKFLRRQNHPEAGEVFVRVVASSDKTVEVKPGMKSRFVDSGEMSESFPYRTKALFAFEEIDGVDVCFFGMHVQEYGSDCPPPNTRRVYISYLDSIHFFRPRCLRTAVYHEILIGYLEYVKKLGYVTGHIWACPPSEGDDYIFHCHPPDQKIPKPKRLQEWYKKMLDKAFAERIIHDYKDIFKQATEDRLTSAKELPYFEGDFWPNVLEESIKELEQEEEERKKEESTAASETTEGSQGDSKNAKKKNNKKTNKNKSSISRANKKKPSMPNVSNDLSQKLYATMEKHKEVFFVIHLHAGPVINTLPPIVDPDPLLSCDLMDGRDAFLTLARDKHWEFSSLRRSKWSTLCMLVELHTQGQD

The test system of the first test is H3K18Ac in HB-CLS-2 cells. Nature of the test: H3K18AC in-cell western (ICW) assay. The class given is cell-based. Conditions: H3K18Ac in-cell western, HB-CLS-2 cells; read-out: CREBBP ICW IC50. From the text:
The following example describes methods and materials relating to an H3K18AC in-cell western assay. IC50 values (micromolar (μM)) are summarized in Table 1, Table 2, and Table 3 under the column labeled: “CREBBP ICW IC50 (micromolar).”
MATERIALS: HB-CLS-2 cell line, DMEM: Ham's F12 medium (1:1 mixture), penicillin-streptomycin, heat inactivated fetal bovine serum, D-PBS, Odyssey blocking buffer, 800CW goat anti-rabbit IgG (H+L) antibody, Licor Odyssey CLx Infrared Scanner, H3K18Ac rabbit monoclonal antibody. DRAQS fluorescent probe solution (5 mM), and 100% methanol were commercially available. HB-CLS-2 adherent cells were maintained in complete growth medium (DMEM: Ham's F12 supplemented with 10% v/v heat inactivated fetal bovine serum) and cultured at 37° C. under 5% CO2.
METHOD: Cell Treatment, ICW for detection of H3K18Ac and DNA content. HB-CLS-2 cells were seeded in assay medium (DMEM: Ham's F12 supplemented with 10% v/v heat inactivated fetal bovine serum and 1% Penicillin/Streptomycin) at a concentration of 80,000 cells per mL in a Poly-D-Lysine coated 384-well culture plates at 50 μL per well. Plates were incubated at room temperature for 30 minutes and then incubated at 37° C., 5% CO2 for additional 16-24 hours. Compounds and DMSO normalization were then added directly to the plates using a D300 Digital Dispenser and returned to the incubator at 37° C., 5% CO2 for 2 hrs. After the incubation, the contents of the plates were discarded into the appropriate waste stream and blotted on laboratory tissue to remove residual liquid. 90 μL per well of 100% ice cold methanol was added to the plates and incubated at room temperature for 15 minutes. Then methanol was then discarded into the appropriate waste stream and the plates again blotted on laboratory tissue to remove residual liquid. Plates were transferred to a Biotek 405 plate washer and washed 3 times with 100 μL per well of wash buffer (1X PBS containing 0.1% Triton X-100 (v/v)). Next, 50 μL per well of Odyssey blocking buffer with 0.1% Tween 20 (v/v) was added to each plate and incubated for 1 hour at room temperature. Blocking buffer was removed and 20 μL of primary antibody were added (α-H3K18Ac diluted 1:800 in Odyssey buffer with 0.1% Tween 20 (v/v)) and plates were incubated overnight (16 hours) at 4° C. Plates were washed 5 times with 100 μL per well of wash buffer. Next 20 μL per well of secondary antibody was added (1:400 800CW goat anti-rabbit IgG (H+L) antibody, 1:2000 DRAQ5 in Odyssey buffer with 0.1% Tween 20 (v/v)) and incubated for 1 hour at room temperature. The plates were washed 3 times with 100 μL per well wash buffer then 3 times with 100 μL per well of water. Plates were allowed to dry at room temperature then imaged on the Licor Odyssey CLx machine which measured integrated intensity at 700 nm and 800 nm wavelengths. Both 700 and 800 channels were scanned.
Consider `CCc1ccc(-c2nc(C(=O)N(C)Cc3cnn(CC)c3C)c3cc(Cl)ccc3n2)cc1` [Compound 374], for which the IC50 worked out at 18 µM.
Turning to `Cc1c(CN(C)C(=O)c2nc(-c3ccccc3Cl)nc3ccc(Cl)cc23)cnn1C1CC1` [Compound 285], the IC50 is 2.7 µM.
Take `CCn1ncc(CN(C)C(=O)c2nc(-c3ccccc3OC)nc3ccc(Cl)cc23)c1C` [Compound 281]: the IC50 was 1.3 µM.
`Cc1c(CN(C)C(=O)c2nc(-c3ccccc3Cl)nc3ccc(Cl)cc23)cnn1CC(F)(F)F` [Compound 337]: the IC50 amounted to 2.3 µM.
As to `CCc1ccc2nc(-c3ccccc3Cl)nc(C(=O)N(C)Cc3cnn(CC)c3C)c2c1` [Compound 312], the IC50 came to 0.58 µM.
Consider `CCn1ncc(CN(CCO)C(=O)c2nc(-c3cccc(Cl)c3)nc3ccc(Cl)cc23)c1C` [Compound 346], for which the IC50 worked out at 1.3 µM.
Consider `CCn1ncc(CN(C)C(=O)c2nc(-c3cncn3C)nc3ccc(Cl)cc23)c1C` [Compound 363], for which the IC50 was 7.4 µM.
Still for that read-out and setting: for `CCc1onc(CN(C)C(=O)c2nc(-c3ccccc3Cl)nc3ccc(Cl)cc23)c1C` [Compound 231] the value was 20 µM; for `CCc1ncc(CN(C)C(=O)c2cc(-c3ccccc3Cl)nc3ccc(Cl)cc23)n1C` [Compound 336], 1.2 µM.

The next test concerns the target T1, CREBBP (1084-1701) (Homo sapiens, UniProt Q92793).
T1 construct: measured in the following biochemical assay using CREBBP (1084-1701); purchased
As to the kind of experiment: Biochemical assay for CREBBP (1084-1701), SAMDI. As to conditions: SAMDI, read-out: CREBBP Biochemistry IC50. From the text: The following example describes materials and methods relating to a biochemical assay for CREBBP (1084-1701). IC50 values (micromolar (μM)) are summarized in Table 1, Table 2, and Table 3 under the column labeled: “CREBBP Biochemistry IC50 (micromolar).”
MATERIALS: Reagents 1M Tris pH 8.0, Tween 20 10%, DTT, bovine serum gelatin (BSG) 2%, Peptide #233 (biotin-H3 11-25, K14R, K23R), Acetyl-CoA, CREBBP (1084-1701), formic acid (100%), and sodium bicarbonate were commercially available.
METHODS: The effect of compounds was measured in the following biochemical assay using CREBBP (1084-1701). Enzyme mix 30 μL per well was added using a Multi-drop to wells of prepared Compound Stock plate. The enzyme was incubated in the Compound Stock plate for 30 minutes at room temperature. Substrate mix, 20 μL per well, was added to Compound Stock plate using a Multi-drop. The plate was covered and incubate 30 minutes at room temperature. The reaction was stopped with addition of 5 μL per well of 5% formic acid using a Multi-drop. The plate was Incubated for 30 minutes at room temperature. The reaction mixture was neutralized with addition of 5 μL per well of 10% sodium bicarbonate using a Multi-drop. The plate was Incubated for 35 minutes at room temperature. The reaction mixture was Transferred 2.5 μL per well to a SAMDI biochip. The plate was Incubated for 60 minutes at room temperature. The samples were washed, dried, and matrix applied to SAMDI biochip. The SAMDI biochip was then read on the mass spectrometer.
For `CCc1ccc(-c2nc(C(=O)N(C)Cc3cnn(CC)c3C)c3cc(Cl)ccc3n2)cc1` [Compound 374], the IC50 worked out at 9.2 µM.
Regarding `Cc1c(CN(C)C(=O)c2nc(-c3ccccc3Cl)nc3ccc(Cl)cc23)cnn1C1CC1` [Compound 285], the IC50 amounted to 4.2 µM.
In the case of `CCn1ncc(CN(C)C(=O)c2nc(-c3ccccc3OC)nc3ccc(Cl)cc23)c1C` [Compound 281], the IC50 stood at 0.83 µM.
As for `Cc1c(CN(C)C(=O)c2nc(-c3ccccc3Cl)nc3ccc(Cl)cc23)cnn1CC(F)(F)F` [Compound 337], the IC50 is 0.63 µM.
Still for that read-out and setting: for `CCc1ccc2nc(-c3ccccc3Cl)nc(C(=O)N(C)Cc3cnn(CC)c3C)c2c1` [Compound 312] the value was 0.072 µM; for `CCn1ncc(CN(CCO)C(=O)c2nc(-c3cccc(Cl)c3)nc3ccc(Cl)cc23)c1C` [Compound 346], 0.42 µM.
Consider `CCn1ncc(CN(C)C(=O)c2nc(-c3cncn3C)nc3ccc(Cl)cc23)c1C` [Compound 363], for which the IC50 was found to be 9.2 µM.
Consider `CCc1onc(CN(C)C(=O)c2nc(-c3ccccc3Cl)nc3ccc(Cl)cc23)c1C` [Compound 231], for which the IC50 worked out at 76 µM.
Consider `CCc1ncc(CN(C)C(=O)c2cc(-c3ccccc3Cl)nc3ccc(Cl)cc23)n1C` [Compound 336], for which the IC50 stood at 0.69 µM.
Take `CCn1ncc(CN(C)C(=O)c2nc(-c3ccccc3Cl)nc3cc(Cl)ccc23)c1C` [Compound 344]: the IC50 came out at 45 µM.
Consider `CCc1n[nH]c(CN(C)C(=O)c2cc(-c3ccccc3Cl)nc3ccc(Cl)cc23)c1C` [Compound 298], for which the IC50 was 31 µM.
Same read-out and setting: for `CCn1ncc(CN(C)C(=O)c2cc(-c3cccc(Cl)c3)nc3ccc(N)cc23)c1C` [Compound 311] the value was 18 µM; for `CCOc1ccc2nc(-c3cccc(Cl)c3)cc(C(=O)N(C)Cc3cnn(CC)c3C)c2c1` [Compound 319], 120 µM; for `CCn1ncc(CN(C)C(=O)c2nc(-c3cccc(Cl)c3)nc3ccc(Cl)c(C)c23)c1C` [Compound 256], 1.4 µM.
Take `CCn1ncc(CN(C)C(=O)c2cc(-c3cccc(Cl)c3)nc3ccc(OC)cc23)c1C` [Compound 273]: the IC50 came out at 19 µM.
With `CCc1ccc2c(C(=O)N(C)Cc3cnn(CC)c3C)cc(-c3ccccc3Cl)nc2c1` [Compound 375], the IC50 was 102 µM.
Consider `CCc1ccc2nc(-c3cccc(Cl)c3)cc(C(=O)N(C)Cc3cnn(CC)c3C)c2c1` [Compound 328], for which the IC50 is 0.29 µM.
On to `CCn1ncc(CN(C)C(=O)c2cc(-c3ccccc3F)nc3ccccc23)c1C` [Compound 378], for which the IC50 worked out at 48 µM.
Turning to `CCn1nnc(CN(C)C(=O)c2cc(-c3ccccc3Cl)nc3ccc(Cl)cc23)c1C` [Compound 291], the IC50 was 89 µM.
Still for that read-out and setting: the value for `CCn1ncc(CN(C)C(=O)c2nc(-c3cnn(C)c3)nc3ccc(Cl)cc23)c1C` [Compound 339] was 29 µM; that for `CCn1nnc(CN(C)C(=O)c2nc(-c3ccccc3Cl)nc3ccc(Cl)cc23)c1C` [Compound 292] was 50 µM; that for `CCn1ncc(CN(C)C(=O)c2nc(-c3ccccc3Cl)nc3ccc(C#N)cc23)c1C` [Compound 310] was 48 µM.
The same measure, in the same setting: the value for `CCn1ncc(CN(C)C(=O)c2cc(-c3ccccc3Cl)nc3cc(OC)ccc23)c1C` [Compound 322] was 134 µM.
Regarding `CCn1ncc(CN(C)C(=O)c2cc(-c3cccc(Cl)c3)nc3ccccc23)c1C` [Compound 352], the IC50 is 41 µM.
Take `CCn1ncc(CN(C)C(=O)c2cc(-c3cccc(C#N)c3)nc3ccc(Cl)cc23)c1C` [Compound 332]: the IC50 was determined as 27 µM.
The same measure, in the same setting: the value for `CCn1ncc(CN(C)C(=O)c2cc(-c3ccccc3)nc3ccccc23)c1C` [Compound 343] was 176 µM; that for `CCn1ncc(CN(C)C(=O)c2cc(-c3ccccc3Cl)nc3cc(F)ccc23)c1C` [Compound 253] was 90 µM; that for `CN(Cc1cnn2c1CCC2)C(=O)c1cc(-c2cccc(Cl)c2)nc2ccc(Cl)cc12` [Compound 367] was 72 µM.
As to `CCn1ncc(CN(C)C(=O)c2cc(-c3cccnc3)nc3ccc(Cl)cc23)c1C` [Compound 364], the IC50 was determined as 34 µM.
Take `CCn1ncc(CN(C)C(=O)c2nc(-c3cc(Cl)ccn3)nc3ccc(Cl)cc23)c1C` [Compound 333]: the IC50 was 3.9 µM.
`CCn1ncc(CN(C)C(=O)c2cc(-c3cccc(Cl)c3)nc3ccccc23)c1C` [Compound 354]: the IC50 turned out to be 38 µM.
`CCn1ncc(CN(C)C(=O)c2nc(-c3ncccc3OC)nc3ccc(Cl)cc23)c1C` [Compound 348]: the IC50 was found to be 21 µM.
Same read-out and setting: for `CCn1ncc(CN(C)C(=O)c2cc(-c3cnn(C)c3)nc3ccc(Cl)cc23)c1C` [Compound 289] the value was 26 µM.
In the case of `CCn1ncc(CN(C)C(=O)c2cc(-c3ncccn3)nc3ccc(Cl)cc23)c1C` [Compound 371], the IC50 worked out at 25 µM.
As for `CCn1ncc(CN(C)C(=O)c2cc(-c3cn(C)cn3)nc3cc(Cl)ccc23)c1C` [Compound 257], the IC50 was 120 µM.
Regarding `CCn1ncc(CN(C)C(=O)c2nc(-c3ccc(OCCCN(C)C(=O)OC(C)(C)C)c(OC)c3)nc3ccc(Cl)cc23)c1C` [Compound 355], the IC50 is 3.8 µM.
Consider `Cc1c(CN(C)C(=O)c2cc(-c3cccc(Cl)c3)nc3ccccc23)cnn1C` [Compound 265], for which the IC50 is 195 µM.
The same measure, in the same setting: the value for `CCn1ncc(CN(C)C(=O)c2nc(-c3ncccn3)nc3ccc(Cl)cc23)c1C` [Compound 278] was 132 µM; that for `CCn1ncc(CN(C)C(=O)c2cc(-c3ccccc3Cl)nc3c(C)cccc23)c1C` [Compound 340] was 40 µM.
`CCn1ncc(CN(C)C(=O)c2nc(-c3ccccn3)nc3ccc(Cl)cc23)c1C` [Compound 262]: the IC50 turned out to be 5.4 µM.
Take `Cc1c(CN(C)C(=O)c2cc(-c3cccc(Cl)c3)nc3ccccc23)cnn1C(C)C` [Compound 304]: the concentration for half-maximal inhibition (IC50) was found to be 43 µM.
Still for that read-out and setting: for `CCn1ncc(CN(C)C(=O)c2nc(-c3ccccn3)nc3cc(Cl)ccc23)c1C` [Compound 327] the value was 152 µM; for `CCn1ncc(CN(C)C(=O)c2nc(-c3cccc(Cl)c3)nc3ccc(C)cc23)c1C` [Compound 275], 0.014 µM.
Consider `CCn1ncc(CN(C)C(=O)c2cc(-c3ncccc3OC)nc3ccc(Cl)cc23)c1C` [Compound 345], for which the IC50 stood at 72 µM.
On the same count and under the same terms, the value for `CCn1ncc(CN(C)C(=O)c2cc(-c3ccccc3Cl)nc3ccccc23)c1C` [Compound 376] was 32 µM; that for `CCn1ncc(CN(C)C(=O)c2nc(-c3cccc(Cl)c3)nc3ccc(F)cc23)c1C` [Compound 309] was 1.8 µM.

Usually IC50 stands for the concentration at which inhibition is half-maximal.
